{
  "source": "paper PMC6134404",
  "about": "(Organic & biomolecular chemistry, 2018)",
  "key": {"OxaC [1]": {"target": "T1, OxaC (Penicillium oxalicum, UniProt A0A1B2TT09)", "experiment": "X-ray crystal structure, […] Å", "format": "binding"}, "OxaC [2]": {"target": "T1, OxaC", "experiment": "X-ray crystal structure, […] Å", "format": "binding", "remark": "listed apart in the source"}, "[3]": {"system": "C=CC(C)(C)[C@@]12C=C(O)C(=O)N3/C(=C/c4cnc[nH]4)C(=O)N[C@]31N(OC)c1ccccc12", "experiment": "HPLC initial-velocity assay, Michaelis-Menten fit", "format": "biochemical, Penicillium oxalicum", "conditions": "0.9 nM OxaC, 0.5 mM SAM, 50 mM Na/K phosphate pH 8.0, 23 °C"}, "crystal structure": {"target": "the molecule itself", "experiment": "crystal structure"}},
  "data": [
    {"molecule": "Nc1ncnc2c1ncn2[C@@H]1O[C@H](CSCC[C@H](N)C(=O)O)[C@@H](O)[C@H]1O", "note": "[S-adenosyl-L-homocysteine]", "values": [
      {"measurement": "X-ray crystal structure, 2.50 Å", "setting": "OxaC [1]; SAM site, product complex with oxaline", "value": "a product complex containing SAH and oxaline"}
    ]},
    {"molecule": "C=CC(C)(C)[C@@]12C=C(O)C(=O)N3/C(=C/c4cnc[nH]4)C(=O)N[C@]31N(OC)c1ccccc12", "note": "[compound 2, meleagrin]", "values": [
      {"measurement": "X-ray crystal structure, 2.95 Å", "setting": "OxaC [2]; pseudo-Michaelis complex with sinefungin", "value": "a pseudo-Michaelis complex composed of the SAM analog sinefungin and the natural substrate meleagrin"}
    ]},
    {"molecule": "C=CC(C)(C)[C@]12C=C(OC)C(=O)N3/C(=C/c4cnc[nH]4)C(=O)N[C@@]31N(OC)c1ccccc12", "note": "[compound 3, oxaline]", "values": [
      {"measurement": "X-ray crystal structure, 2.50 Å", "setting": "OxaC [1]; product complex with SAH, co-crystallised with meleagrin and SAM", "value": "a product complex containing SAH and oxaline"}
    ]},
    {"molecule": "Nc1ncnc2c1ncn2[C@@H]1O[C@H](C[C@@H](N)CC[C@H](N)C(=O)O)[C@@H](O)[C@H]1O", "note": "[sinefungin]", "values": [
      {"measurement": "X-ray crystal structure, 2.95 Å", "setting": "OxaC [2]; SAM site, complex with meleagrin", "value": "a pseudo-Michaelis complex composed of the SAM analog sinefungin and the natural substrate meleagrin"}
    ]},
    {"molecule": "OxaC (Penicillium oxalicum)", "values": [
      {"measurement": "Km", "setting": "[3]", "value": "3.1 ± 0.9", "unit": "µM"},
      {"measurement": "kcat", "setting": "[3]", "value": "1.3 ± 0.2", "unit": "s⁻¹"},
      {"measurement": "kcat/Km", "setting": "[3]", "value": 420000, "unit": "M⁻¹ s⁻¹"}
    ]},
    {"molecule": "OxaC (enzyme) MGSSHHHHHHHHGASENLYFQGASMTFSNADAQKIAVQKDVDEVVAAAQRFLHGSGNATSDEAKVDLQKKASNLVQTIRGPIPAALSSMEDIVKVASLRTLFEAGVFHAMPKGGASMTASEISAQTGLDKGILIRLMRAVTPLGPFHEVGEEEYAHTPFSEAYLTADIAGCFPVMSNFIFGPVLQICDFLRQNNWKDAITTRNNPFTLAHNCPGETMFEHLYKNSKNVAPVTKAEAADVDQIAMDLYPWEERLSDAKGSNATLVDIAGSHGNGTRAIMALAPKLNGCRFIVQDLEPVIGEHSQALRAEGIEPQVYDFLKQEQPVHGASIYYFRRVFHDWPDLPEGKKILDNTRAAMSREHSRILIHDIIVPEIGATMSHAWQDLSLMAIGGMERTEKDFARLLDIAGLALVKVWRKPGDMMGIIEARLK", "values": [
      {"measurement": "stoichiometry N", "setting": "crystal structure", "value": 2}
    ]}
  ]
}
